Source: publication PMC4559766 (Scientific Reports, 2015)
Read-outs that look alike come from different tables or passages of the source. Peptide text beside a SMILES is read from it.

Columns and labels:
[1] = Blood biochemical indexes of liver and kidney function in tumor-bearing nude mice; conditions: serum at end of 4 weeks of administration, n = 6
Protocol: (§1) The blood was collected and centrifuged at the end of administration for 4 weeks. The serum was placed into eppendorf (EP) tube and immediately sent to the First Affiliated Hospital of Jinan University where several tests closely related to liver/kidney function were performed, and the blood biochemical indexes AST, ALT, AST/ALT, ALB, GLB, ALB/GLB, DBILI, IBILI, TBILI, BUN and CREA were obtained.

[2] = tested on: Du145 transplanted tumor; test: Microvessel density of removed tumors (anti-CD31 immunohistochemistry, Weidner method); assay type: in vivo, BALB/c-nu/nu nude mice; conditions: tumors removed after 4 weeks of administration, anti-CD31, n = 6
Protocol: Four weeks after administration, the mice were executed, and the tumors of different groups were removed and fixed with 10% neutral formalin or 2.5% glutaraldehyde. The fixed tumor tissue slides were subjected to Hematoxylin-eosin (HE) staining, immunohistochemistry in which anti-CD31 antibody and biotin-labeled IgG were respectively used as the first and second antibody, and TEM analysis. The microvessel densitied (MVD) in different tumor tissues was calculated using the Weidner method.

[3] = tested on: Du145 transplanted tumor; test: Subcutaneous Du145 transplanted tumor in nude mice; assay type: in vivo, BALB/c-nu/nu nude mice; conditions: tail vein once a day for 4 weeks
Protocol: Thirty male 4-week-old BALB/c-nu/nu nude mice (17–19 g), were divided into five groups. CK group (blank control) was the mice which were not inoculated Du145 cells, and the remaining four groups received inoculation of Du145 cells. 0.2 ml of Du145 cells suspension with the concentration of 1.5 × 10^7 cells/ml was injected subcutaneously into the right side of back of nude mice. […] The weights and volumes of tumors in different groups were measured once every four days, and tumor growth curves for each group were plotted.

[4] = mouse, in vivo
Protocol: (§2) Blood samples were collected by eye bleed from three mice at per time point prior to dosing and from 0.5 to 24 hours postdosing, and the plasma portion was analyzed by using an electrospray ionization, LC/MS/MS method described previously[48]. […] Tri (2-carboxyethyl) phosphine hydrochloride (TCEP) was used as a reducing agent to enhance peptide recovery and was added to all samples at a final concentration of 2 mM. After removing the plasma proteins through adding acetonitrile and centrifugation, the supernatant was transferred to another 96-well plate. Samples were analyzed by LC/MS/MS. Pharmacokinetic parameters were fitted to a two-compartment elimination model, and drug exposure (AUC), elimination half-life (t1⁄2), volume of distribution (Vd) and the clearance (CL) were calculated using WinNonlin Ver.

[5] = in vivo; conditions: BALB/c, mouse, iv, 5 mg/kg
Protocol: as §2

[6] = mouse, in vivo; remark: listed apart in the source
Protocol: as §1

[7] = target: T1, HSA (Homo sapiens, UniProt P02768); test: Phage ELISA of 7-mer peptides for serum albumin binding
T1 construct: purchased Sigma
Protocol: HSA or MSA were dissolved with 0.1 M NaHCO3 to obtain a solution at 100 μg/ml. The obtained solutions were loaded to each row of wells of enzyme-linked immunosorbent assay (ELISA) multiple-well plate, and the plates were blocked with 1% casein in NaHCO3. Each selected phage clone to be identified was subject to 4-fold serial dilution to allow 10^12 phage particles in the first well and 2.4 × 10^5 phage particles in the twelfth well. Each row of the diluted phages was transferred into the plate coated with HSA or MSA by using a mutichannel pipettor, and the plate was incubated at 25 °C for 1.5 hours. After the microtiter plate was repeatedly washed with TBST, bound phages were detected by incubation with Rabbit anti-M13 phage antibody and HRP-conjugated goat anti-rabbit IgG. ABTS/H2O2 substrate was used to measure the amount of HRP bound and monitor the absorbance at 405 nm.

T1 sequence (P02768 25-609): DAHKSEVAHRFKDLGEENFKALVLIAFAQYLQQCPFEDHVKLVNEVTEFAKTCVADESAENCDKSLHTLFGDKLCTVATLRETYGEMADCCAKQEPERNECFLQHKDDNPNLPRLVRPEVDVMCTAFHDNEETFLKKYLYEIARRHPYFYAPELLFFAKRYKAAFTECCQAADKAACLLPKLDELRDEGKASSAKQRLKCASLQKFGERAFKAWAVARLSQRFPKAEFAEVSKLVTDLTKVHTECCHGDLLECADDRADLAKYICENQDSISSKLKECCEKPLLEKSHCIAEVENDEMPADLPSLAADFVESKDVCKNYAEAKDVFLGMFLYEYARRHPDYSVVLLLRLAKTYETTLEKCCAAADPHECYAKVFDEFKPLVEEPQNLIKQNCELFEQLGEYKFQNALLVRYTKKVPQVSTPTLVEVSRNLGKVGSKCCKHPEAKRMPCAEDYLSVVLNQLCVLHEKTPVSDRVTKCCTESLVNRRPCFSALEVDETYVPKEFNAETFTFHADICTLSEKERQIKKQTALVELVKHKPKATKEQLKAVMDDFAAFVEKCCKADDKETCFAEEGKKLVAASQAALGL

C[C@]12CC[C@@H]3c4ccc(OC(=O)N(CCCl)CCCl)cc4CC[C@H]3[C@@H]1CC[C@@H]2O [Estramustine]
ALB [1]: 15.2 ± 0.6 g/L
ALB/GLB [1]: 0.36 ± 0.02
ALT [1]: 81.5 ± 12.5 U/L
AST [1]: 161 ± 18 U/L
AST/ALT [1]: 1.99 ± 0.09
CREA [1]: 4 ± 0.3 µM
DBILI [1]: 3.7 ± 0.4 µM
GLB [1]: 42.1 ± 3.7 g/L
IBILI [1]: 7.7 ± 0.2 µM
TBILI [1]: 11.4 ± 0.2 µM
microvessel density (MVD) [2]: 8.6 ± 0.83
body weight change of treated mice ([3]; 40 nM RMP16, estramustine 60 mg/kg): reduced obviously
tumor inhibition rate ([3]; 0.1 ml of 40 nM RMP16 or P16, estramustine 60 mg/kg, by average tumor weight versus NaCl group, n = 6): 83.03%

CC[C@H](C)[C@H](NC(=O)[C@H](CCCNC(=N)N)NC(=O)[C@H](CO)NC(=O)[C@@H](NC(=O)[C@@H](NC(=O)[C@H](Cc1c[nH]cn1)NC(=O)[C@@H](NC(=O)[C@H](CC(C)C)NC(=O)[C@@H](N)CC(C)C)[C@@H](C)O)[C@@H](C)O)[C@@H](C)CC)C(=O)N[C@@H](C)C(=O)N[C@H](C(=O)N[C@@H](CO)C(=O)N[C@@H](Cc1ccc(O)cc1)C(=O)N[C@@H](CCC(N)=O)C(=O)N[C@H](C(=O)N[C@@H](CCCCN)C(=O)N[C@H](C(=O)N[C@@H](CC(N)=O)C(=O)N[C@@H](CC(C)C)C(=O)N[C@@H](CC(C)C)C(=O)O)C(C)C)[C@@H](C)O)C(C)C [P16] (H-LLTHTISRIAVSYQTKVNLL-OH)
half-life [4]: 5.77 min
AUC [5]: 12300 ng·h/mL
Vd [5]: 0.0561 L/kg
clearance [5]: 6.75 mL/min/kg
half-life [5]: 5.76 min
ALB [6]: 17.25 ± 1.35 g/L
ALB/GLB [6]: 0.45 ± 0.02
ALT [6]: 131.5 ± 24.5 U/L
AST [6]: 188.5 ± 29.5 U/L
AST/ALT [6]: 1.45 ± 0.05
BUN [6]: 10.63 ± 0.35
CREA [6]: 9.5 ± 0.5 µM
DBILI [6]: 3.85 ± 0.25 µM
GLB [6]: 41.75 ± 1.45 g/L
IBILI [6]: 9.75 ± 0.45 µM
TBILI [6]: 13.6 ± 0.2 µM

WQRPSSW
binding affinity to HSA compared with MSA ([7]; phage ELISA, plates coated with HSA or MSA): slightly higher than that of mouse serum albumin
HSA-binding affinity of phage-encoded 7-mer peptide ([7]; sandwich immunoassay (ELISA), 4-fold serial dilution from 10^12 phage particles, absorbance at 405 nm): much higher HSA-binding affinity than HLYWQRP
